From the supplement of paper PMC7840683
± gives the standard deviation of the averaged measurements.

Tested on: HepaRG
Assay: LDH release cytotoxicity, % of total lysis control; higher = more cytotoxic
Settings: 48 h
Method in brief: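 Percent cytotoxicity was scaled between on-plate vehicle and total lysis controls, then averaged over duplicate wells. The cells were single-lot HepaRG on collagen I-coated 96-well plates, exposed for 48 h to eight-point half-log test chemical series topping at 100 µM in serum-free induction medium with 0.5% DMSO. Total lysis wells got 0.1% Triton X, and LDH in 50 µL spent medium was read as resorufin fluorescence (CytoTox-ONE, Tecan Safire).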

SMILES | LDH release cytotoxicity (0.03162 µM) [%] | LDH release cytotoxicity (0.1 µM) [%] | LDH release cytotoxicity (0.3162278 µM) [%] | LDH release cytotoxicity (1 µM) [%] | LDH release cytotoxicity (3.16228 µM) [%] | LDH release cytotoxicity (10 µM) [%] | LDH release cytotoxicity (31.6228 µM) [%] | LDH release cytotoxicity (100 µM) [%] | LDH release cytotoxicity (0.0132816 µM) [%] | LDH release cytotoxicity (0.042 µM) [%] | LDH release cytotoxicity (0.132816 µM) [%] | LDH release cytotoxicity (0.42 µM) [%] | LDH release cytotoxicity (1.3281566 µM) [%] | LDH release cytotoxicity (4.2 µM) [%] | LDH release cytotoxicity (13.281566 µM) [%] | LDH release cytotoxicity (42 µM) [%]
CC(C)=CC1C(C(=O)OCN2C(=O)C3=C(CCCC3)C2=O)C1(C)C (configuration not stated) [Tetramethrin] | -1.77 ± 0.86 | -1.73 ± 1 | -2 ± 0.85 | -2.13 ± 0.4 | -1.65 ± 0.066 | -1.51 ± 0.38 | -0.61 ± 0.13 | 0.736 ± 0.64 |  |  |  |  |  |  |  | 
O=C1CCC(N2C(=O)c3ccccc3C2=O)C(=O)N1 (configuration not stated) [Thalidomide] | -0.888 ± 0.55 | -1.52 ± 0.44 | -0.291 ± 0.28 | -0.415 ± 0.18 | -0.0333 ± 0.45 | 0.674 ± 0.93 | 1.56 ± 1.5 | 1.53 ± 1.5 |  |  |  |  |  |  |  | 
Cn1cnc2c1c(=O)[nH]c(=O)n2C [Theobromine] |  |  |  |  |  |  |  |  | 0.266 ± 2.6 | 0.527 ± 1.8 | 0.244 ± 1.1 | -0.545 ± 0.65 | 0.0875 ± 0.46 | -0.226 ± 0.1 | -0.215 ± 0.61 | 0.896 ± 0.38
Cn1c(=O)c2[nH]cnc2n(C)c1=O [Theophylline] | -1.27 ± 0.97 | -2.1 ± 0.29 | -1.54 ± 0.53 | -1.74 ± 0.26 | -1.51 ± 0.33 | -1.15 ± 0.042 | -0.719 ± 0.16 | -0.479 ± 0.38 |  |  |  |  |  |  |  | 
c1ccc2[nH]c(-c3cscn3)nc2c1 [Thiabendazole] | -1.05 ± 0.62 | -0.974 ± 0.082 | -1.37 ± 0.03 | -1.6 ± 0.34 | -1.13 ± 0.68 | -0.856 ± 0.24 | 0.392 ± 0.63 | 5.7 ± 1.5 |  |  |  |  |  |  |  | 
N#CN=C1SCCN1Cc1ccc(Cl)nc1 [Thiacloprid] | -2.96 ± 0.36 | -3.73 ± 0.31 | -3.467 ± 0.025 | -3.3 ± 0.68 | -3.46 ± 0.55 | -2.54 ± 0.15 | -2.87 ± 0.072 | -1.64 ± 1.2 |  |  |  |  |  |  |  | 
CN1COCN(Cc2cnc(Cl)s2)C1=N[N+](=O)[O-] [Thiamethoxam] | -0.296 ± 0.14 | -1.13 ± 0.85 | -0.0609 ± 0.4 | -1.83 ± 0.5 | -1.49 ± 0.41 | 0.119 ± 1.6 | -1.01 ± 0.87 | 0.102 ± 1.4 |  |  |  |  |  |  |  | 
COC(=O)c1c(C(F)F)nc(C(F)(F)F)c(C2=NCCS2)c1CC(C)C [Thiazopyr] | -0.958 ± 2.2 | -0.18 ± 0.21 | -0.693 ± 0.24 | -0.8 ± 0.35 | -0.567 ± 0.015 | -0.719 ± 0.32 | -0.722 ± 0.28 | -0.433 ± 0.5 |  |  |  |  |  |  |  | 
O=C(Nc1ccccc1)Nc1cnns1 [Thidiazuron] | -1.24 ± 0.048 | -0.715 ± 0.86 | -0.562 ± 0.16 | -0.873 ± 0.82 | -1.15 ± 0.018 | -0.652 ± 1.3 | -0.0499 ± 1.6 | 17.6 ± 3.5 |  |  |  |  |  |  |  | 
